{"source": "patent US20090149412A1", "about": "“Method for Inhibition of Phospholamban Activity for the Treatment of Cardiac Disease and Heart Failure” (THE REGENTS OF THE UNIVERSITY OF CALIFORNIA, priority 1999, published 2009)", "molecules": {"B1": {"name": "contractilin: recombinant protein from chicken polyclonal PLB antibody hypervariable regions, expressed from adenoviral vector (Seq. ID. No. 9) (protein, listed as Homo sapiens)", "chain": "MHHHHHHVAQAALTHSSSVSANPGETVKITCSGGGNYAGSYYYGWFQQKSPGSAPVTVIYSNDQRPSNIPSRFSGSTSGSTSTLTITGVRAEDEAVYFCGSNSGTGYVGIFGAGTTLTVLGQSSRSSTVTLDESGGGLQTPGGALSLVCRASGFTFSRFHMMWVRQAPGKGLEWVAGIDDGGSFTLYGAAVKGRATILRDNGQSTVRLQLDNLRPEDTATYFCVKTKCGGNGWCGADRIDAWGHGTEVIVSSTSGQAGQYPYDVPDYAS"}}, "assay_type_in_all_cases": "cell-based", "key": {"PLB protein": {"test_system": "PLB protein", "assay": "Western blot quantification of PLB protein content in myocytes infected with adenovirus transgenes", "details": "normalized to a-actin, compared with adenovirus/SR control lacking the transgene", "description": "FIG. 6a is a Western blot analysis of myocytes containing the adenovirus transgenes expressing sense PLB (sPLB), antisense PLB (asPLB), E2A, R14E, S16N, and K3E/R14E against monoclonal PLB. FIG. 6b is a Western blot showing the results of cell infectivity by PLB, sPLB and K3E/R14E. FIG. 6c illustrates the Western blot analysis of PLB infectivity of So18 cells.\nAdditional Western blot analysis of myocytes containing the adenovirus transgenes expressing sense PLB (sPLB), antisense PLB (asPLB), E2A, R14E, S1.6N, and K3E/R14E against monoclonal PLB antibody (Affinity BioReagents) is shown in FIG. 6a. […] In contrast, asPLB and S16N results in 54% and 33% decrease in PLB protein content within the myocytes. The introduction of K3E/R14E transgene infection of myocytes leads to a formation of a distinct pattern of pentamer PLB. Multiple PLB bands appear in addition to PLB5 (the pentamer)."}, "[1]": {"test_system": "isolated mouse cardiomyocytes", "assay": "Contraction cycle of isolated mouse cardiomyocytes with penetratin-PLB peptide", "details": "10 μM peptide; for Maximum Contract. / Minimum Contract.: arbitrary unit of length, single samples 1-7 and Mean; for Relax. Slope: control mean 0.9814", "description": "Cell level studies were done to evaluate the ability of two penetratin-based peptides, two mutant PLB-penetratin peptides, and two multiple antigen peptides (MAP) to strengthen the contraction cycle of isolated mouse cardiomyocytes. The two penetratin-based peptides include PLB-ANT (Seq. ID. No. 10) and TAT-PLB (Seq. ID. No. 11) each of which have a 20 residue portion of the PLB sequence attached to either the 5′ end of ANT (Seq. ID. No. 14) or the 3′ end of TAT (Seq. ID. No. 15). The two mutant PLB peptides, mutant PLB-ANT (Seq. ID. No. 12) and TAT-mutant PLB (Seq. ID No. 13), display a S16E mutation of the 20 residue PLB sequence. The multiple antigen peptides include MAP with 8 penetratin (ANT) domains and MAP with 4 penetratin domains and 4 PLB domains.\nEach of the penetratin-PLB peptides were evaluated to measure their ability to strengthen the contraction cycle of isolated mouse cardiomyocytes, the idea being that the penetratin-PLB peptide would act as a dominant negative inhibitor of the PLE3-SERCA2a interaction.\nMeasurements were taken every 20 milliseconds, and the unit of length was arbitrary, but was generally on the order of one complete cell length. Percent contraction was calculated as (maximum length minus minimum length) divided by maximum length. A plot of time versus length generated a U-shaped curve from which the most linear segments were selected, with the left side of the “U” representing contraction and the right side representing relaxation."}, "SR Ca2+ transport": {"test_system": "SR Ca2+ transport", "assay": "Radioactive Ca2+ transport assay (SR Ca2+ transport)", "details": "adenoviral vector expressing contractilin, rat cardiomyocytes", "protocol": "The amplified and purified hypervariable region RNA is then fused to a single cDNA (Seq. ID. No. 9) and subsequently cloned in frame into a plasmid vector, coding for a phage surface protein. Using standard phage display technique, phages which express the immune library of the chicken are selected by their positive response to the PLB peptide. After a series of enrichment for phages which specifically bind PLB, 20 clones are selected for ELISA. The resulting 5 best binders are then analyzed using a radioactive Ca^2+ transport assay. The two best activators of SR Ca^2+ transport are further analyzed. Both clones are found to dramatically stimulate the rate of Ca^2+ transport into the SR."}}, "note": "Where “and” joins values, the source holds several entries; their conditions need not be identical. Equal values may be shown once.", "data": [{"molecule": "R14E: adenoviral single point mutation of PLB, Seq. ID. No. 4 (MEKVQYLTRSAIREASTIEMPQQARQKLQNLFINFCLILICLLLICIIVMLL; adenoviral vector; listed as Homo sapiens)", "values": [{"measurement": "increase in PLB protein level", "setting": "PLB protein", "value": 57, "unit": "%"}]}, {"molecule": "E2A: adenoviral single point mutation of PLB, Seq. ID. No. 3 (MAKVQYLTRSAIRRASTIEMPQQARQKLQNLFINFCLILICLLLICIIVMLL; adenoviral vector; listed as Homo sapiens)", "values": [{"measurement": "increase in PLB protein level", "setting": "PLB protein", "value": 72, "unit": "%"}]}, {"molecule": "TAT-PLB: 20 residue portion of the PLB sequence attached to the 3′ end of TAT, Seq. ID. No. 11 (GGGGYGRKKRRQRRRMEKVQYLTRSAIRRASTIEM; listed as Homo sapiens)", "values": [{"measurement": "effect on myocyte contraction (overall)", "setting": "[1]; T-test, no statistical difference", "value": "trend towards a larger, faster contraction"}, {"measurement": "Maximum Contract.", "setting": "[1]", "value": "112.57 and 109.68 and 133.82 and 81.61 and 74.423 and 126.89 and 133.61"}, {"measurement": "Minimum Contract.", "setting": "[1]", "value": "101.17 and 102.00 and 116.32 and 67.871 and 64.629 and 108.38 and 128.21"}, {"measurement": "Maximum Contract.", "setting": "[1]; mean", "value": 110.373}, {"measurement": "Minimum Contract.", "setting": "[1]; mean", "value": 98.363}, {"measurement": "Relax. Slope", "setting": "[1]", "value": "0.9925 and 0.9790 and 0.9878 and 0.9697 and 0.9933 and 0.9939 and 0.9959"}, {"measurement": "Relax. Slope", "setting": "[1]; mean", "value": 0.9874}]}, {"molecule": "B1", "values": [{"measurement": "cytoplasmic Ca2+ removal", "setting": "SR Ca2+ transport", "value": "accelerates cytoplasmic Ca^2+ removal"}]}]}
